The target of assay [1] is CtermHisTag-mEGFR Triple Mutant - C797S, L858R, T790M (Homo sapiens, UniProt P00533, C797S/L858R/T790M). In words: TR-FRET probe displacement assay, EGFR triple mutant. Conditions: T790M 1.25 nM, probe 100 nM, 30 mins room temperature. The assay is classed as binding. An outline of the steps:
(§1)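 Ten-point compound series, 100000 to 3 nM final, tested against His-tagged EGFR (wild type or C797S/L858R/T790M) for probe displacement. TR-FRET read at Ex337 nm, Em490/520 nm; run in technical replicate, biological duplicate.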
On the technique in general: TR-FRET usually uses a lanthanide donor and a delayed reading to cut background.

For assay [2], the target named is CtermHisTag-mEGFR Wild type (Homo sapiens, UniProt P00533). In words: TR-FRET probe displacement assay, EGFR wild type. In kind it is binding. Conditions: EGFR wild type 1.25 nM, probe 100 nM, 30 mins room temperature. Summed up: as §1
Assay [3] addresses T1, Phospho-EGFR (Tyr1068) in H1975 cells (Homo sapiens, UniProt P00533, L858R/T790M).
T1 construct: host or cells: H1975
The assay can be described thus: HTRF pEGFR/total EGFR assay in H1975 cells. In kind it is cell-based. Conditions: compound 3 hours, ratio pEGFR/total EGFR. An outline of the steps: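 H1975 cells (EGFR L858R/T790M) adhered 24 h, then compound-treated for 3 h in duplicate, 0.1% DMSO final. Lysates read by HTRF at 665/620 nm for phospho-Tyr1068 and total EGFR. Value is pEGFR/total EGFR ratio as % of 0 uM control.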

Assay [4] deals with T2, Phospho-EGFR (Tyr1068) in H1975 C797S cells (Homo sapiens, UniProt P00533, C797S/L858R/T790M).
T2 construct: endogenous in cells; host or cells: H1975 C797S (CRISPR-edited in house from ATCC CRL-5908)
In words: HTRF pEGFR/total EGFR assay in H1975 C797S cells. The assay is classed as cell-based. Conditions: H1975 C797S cells (CRISPR), compound 3 hours, ratio pEGFR/total EGFR. Summed up: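 H1975 cells carrying CRISPR-engineered EGFR C797S (with L858R/T790M) were exposed to compounds for 3 h at 0.1% DMSO, in duplicate. Lysates were read with HTRF kits for pEGFR Tyr1068 and total EGFR at 665/620 nm. Values are the pEGFR/total EGFR ratio as percent of the 0 uM control.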

Assay [5] has as its target T3, Phospho-EGFR (Tyr1068) in A431 cells (Homo sapiens, UniProt P00533).
T3 construct: endogenous in cells; host or cells: A431
The assay can be described thus: HTRF pEGFR/total EGFR assay in A431 cells (EGF stimulated). The assay is classed as cell-based. Conditions: compound 2.5 hours then 100 ng/ml EGF 30 mins, ratio pEGFR/total EGFR. An outline of the steps:
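A431 cells pretreated with compounds 2.5 h (0.1% DMSO), then stimulated with 100 ng/ml EGF for 30 min. Lysates assayed by HTRF for phospho-EGFR (Tyr1068) and total EGFR, read at 665/620 nm. Values are pEGFR/total EGFR ratio as percentage of 0uM control.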

IC50 data for 19 compounds are collected here from patent US20260176265A1 (Cancer Research Technology Limited, priority 2022, published 2026).

T3 sequence (P00533 25-1210): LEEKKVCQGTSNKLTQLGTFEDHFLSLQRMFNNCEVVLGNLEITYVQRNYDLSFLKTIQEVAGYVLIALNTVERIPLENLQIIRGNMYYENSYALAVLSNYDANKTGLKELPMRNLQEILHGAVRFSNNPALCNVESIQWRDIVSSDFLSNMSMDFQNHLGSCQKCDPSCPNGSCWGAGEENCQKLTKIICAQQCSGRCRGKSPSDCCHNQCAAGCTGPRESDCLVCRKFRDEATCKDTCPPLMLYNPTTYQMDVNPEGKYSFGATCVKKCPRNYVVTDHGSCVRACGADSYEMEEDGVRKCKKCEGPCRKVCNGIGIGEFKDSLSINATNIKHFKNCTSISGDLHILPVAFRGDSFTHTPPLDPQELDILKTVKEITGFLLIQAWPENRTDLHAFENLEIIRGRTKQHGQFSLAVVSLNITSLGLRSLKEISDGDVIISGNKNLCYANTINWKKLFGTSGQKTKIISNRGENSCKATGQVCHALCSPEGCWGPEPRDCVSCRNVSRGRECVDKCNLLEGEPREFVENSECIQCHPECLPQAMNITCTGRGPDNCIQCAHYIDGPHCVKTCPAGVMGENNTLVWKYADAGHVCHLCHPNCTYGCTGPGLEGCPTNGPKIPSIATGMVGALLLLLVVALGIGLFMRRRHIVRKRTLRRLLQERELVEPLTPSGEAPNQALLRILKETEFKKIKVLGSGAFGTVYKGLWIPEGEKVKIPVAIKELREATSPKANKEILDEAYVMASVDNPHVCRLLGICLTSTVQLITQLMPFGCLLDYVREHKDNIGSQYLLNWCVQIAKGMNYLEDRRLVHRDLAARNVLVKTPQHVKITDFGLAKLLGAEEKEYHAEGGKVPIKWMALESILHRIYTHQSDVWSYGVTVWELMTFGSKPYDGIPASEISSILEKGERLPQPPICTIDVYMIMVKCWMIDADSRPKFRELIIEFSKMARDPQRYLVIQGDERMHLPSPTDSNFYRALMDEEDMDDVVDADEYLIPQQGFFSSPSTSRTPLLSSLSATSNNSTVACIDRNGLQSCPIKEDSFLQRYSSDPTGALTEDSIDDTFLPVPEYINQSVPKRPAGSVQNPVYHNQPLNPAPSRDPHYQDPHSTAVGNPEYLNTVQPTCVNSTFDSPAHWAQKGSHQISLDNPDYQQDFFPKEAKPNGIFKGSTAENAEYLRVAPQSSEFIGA
CtermHisTag-mEGFR Wild type, sequence (P00533 25-1210): as above
T1 sequence (P00533 25-1210 T790M/L858R): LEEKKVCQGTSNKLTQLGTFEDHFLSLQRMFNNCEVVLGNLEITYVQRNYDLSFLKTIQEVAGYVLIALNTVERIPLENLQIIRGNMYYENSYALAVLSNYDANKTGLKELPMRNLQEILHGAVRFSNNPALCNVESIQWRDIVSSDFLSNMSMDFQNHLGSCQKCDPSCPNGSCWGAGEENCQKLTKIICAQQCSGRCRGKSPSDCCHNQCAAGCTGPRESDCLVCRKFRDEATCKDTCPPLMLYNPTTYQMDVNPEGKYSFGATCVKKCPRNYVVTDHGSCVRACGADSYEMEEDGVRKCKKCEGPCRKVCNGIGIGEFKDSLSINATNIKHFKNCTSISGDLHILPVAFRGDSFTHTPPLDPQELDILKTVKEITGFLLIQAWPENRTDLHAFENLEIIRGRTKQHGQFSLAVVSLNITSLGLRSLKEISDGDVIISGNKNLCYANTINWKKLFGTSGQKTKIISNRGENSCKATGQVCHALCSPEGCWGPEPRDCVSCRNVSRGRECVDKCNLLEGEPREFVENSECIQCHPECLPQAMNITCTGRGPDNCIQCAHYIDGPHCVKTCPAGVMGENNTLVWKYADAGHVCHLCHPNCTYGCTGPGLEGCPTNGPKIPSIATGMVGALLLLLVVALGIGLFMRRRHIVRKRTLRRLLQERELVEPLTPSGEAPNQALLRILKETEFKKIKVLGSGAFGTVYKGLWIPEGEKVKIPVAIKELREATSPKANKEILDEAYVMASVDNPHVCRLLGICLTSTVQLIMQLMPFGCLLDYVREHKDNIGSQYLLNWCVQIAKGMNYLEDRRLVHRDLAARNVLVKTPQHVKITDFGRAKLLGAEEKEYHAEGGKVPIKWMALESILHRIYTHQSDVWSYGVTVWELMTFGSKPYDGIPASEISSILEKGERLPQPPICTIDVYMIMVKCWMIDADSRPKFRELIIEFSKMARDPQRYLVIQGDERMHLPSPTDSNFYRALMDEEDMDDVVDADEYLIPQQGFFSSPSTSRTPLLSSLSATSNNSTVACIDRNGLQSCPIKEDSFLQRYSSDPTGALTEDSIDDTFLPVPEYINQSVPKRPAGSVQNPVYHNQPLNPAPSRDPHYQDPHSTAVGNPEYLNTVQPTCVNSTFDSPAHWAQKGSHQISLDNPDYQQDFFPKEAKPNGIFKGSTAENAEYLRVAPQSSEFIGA
CtermHisTag-mEGFR Triple Mutant - C797S, L858R, T790M, sequence (P00533 25-1210 T790M/C797S/L858R): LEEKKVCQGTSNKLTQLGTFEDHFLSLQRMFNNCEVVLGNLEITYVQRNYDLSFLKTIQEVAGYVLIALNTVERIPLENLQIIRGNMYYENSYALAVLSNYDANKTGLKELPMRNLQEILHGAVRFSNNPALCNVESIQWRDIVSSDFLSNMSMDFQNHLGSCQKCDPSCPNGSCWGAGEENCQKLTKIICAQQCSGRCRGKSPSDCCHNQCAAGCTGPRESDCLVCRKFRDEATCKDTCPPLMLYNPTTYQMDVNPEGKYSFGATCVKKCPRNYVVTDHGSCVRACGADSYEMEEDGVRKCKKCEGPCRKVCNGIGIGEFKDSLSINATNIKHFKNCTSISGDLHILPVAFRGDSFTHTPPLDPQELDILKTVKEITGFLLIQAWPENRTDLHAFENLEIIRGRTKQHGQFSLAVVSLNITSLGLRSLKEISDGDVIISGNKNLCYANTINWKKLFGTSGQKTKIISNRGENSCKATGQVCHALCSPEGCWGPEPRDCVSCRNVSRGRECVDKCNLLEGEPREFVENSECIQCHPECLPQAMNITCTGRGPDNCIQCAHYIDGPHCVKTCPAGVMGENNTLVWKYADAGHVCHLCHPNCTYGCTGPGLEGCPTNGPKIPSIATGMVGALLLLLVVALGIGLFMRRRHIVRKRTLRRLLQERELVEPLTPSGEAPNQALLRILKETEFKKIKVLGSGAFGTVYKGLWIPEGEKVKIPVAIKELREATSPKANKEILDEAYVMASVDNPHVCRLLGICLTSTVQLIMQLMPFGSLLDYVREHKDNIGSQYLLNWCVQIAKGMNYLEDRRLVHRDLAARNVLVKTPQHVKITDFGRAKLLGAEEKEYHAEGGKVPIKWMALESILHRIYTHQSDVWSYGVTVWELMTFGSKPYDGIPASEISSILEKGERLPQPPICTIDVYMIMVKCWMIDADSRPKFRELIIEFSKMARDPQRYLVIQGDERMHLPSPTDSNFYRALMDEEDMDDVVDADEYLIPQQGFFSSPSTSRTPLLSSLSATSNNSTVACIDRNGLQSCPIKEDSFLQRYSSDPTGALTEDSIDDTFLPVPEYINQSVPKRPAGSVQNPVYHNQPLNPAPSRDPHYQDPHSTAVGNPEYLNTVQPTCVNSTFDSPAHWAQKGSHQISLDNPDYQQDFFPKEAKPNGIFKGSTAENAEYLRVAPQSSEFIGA

As usually defined, the IC50 is the concentration needed to halve the response being measured. Turning to `C#Cc1cc(NC(=O)OC2CCCC2)nc2nc(Nc3ccc(N4CCN(C)CC4)cc3)ncc12` [Example 65, cyclopentyl (5-ethynyl-2-((4-(4-methylpiperazin-1-yl)phenyl)amino)pyrido[2,3-d]pyrimidin-7-yl)carbamate], the IC50 in assay [1] was 100 to 1000 nM; in assay [2] it was above 10000 nM; in assay [3], 1000 to 3000 nM; in assay [4], above 3000 nM; in assay [5], above 3000 nM.

As for `C#Cc1cc(NC(=O)OC2CCCCC2)nc2nc(Nc3ccc(N4CCN(C)CC4)cc3)ncc12` [Example 66, cyclohexyl (5-ethynyl-2-((4-(4-methylpiperazin-1-yl)phenyl)amino)pyrido[2,3-d]pyrimidin-7-yl)carbamate], the IC50 in assay [1] was 100 to 1000 nM; in assay [2], above 10000 nM; in assay [3], above 3000 nM; in assay [4], above 3000 nM; in assay [5], above 3000 nM.

With `C#Cc1cc(NC(=O)OCc2ccccc2)nc2nc(Nc3ccc(N4CCN(C)CC4)cc3)ncc12` [Example 67, benzyl (5-ethynyl-2-((4-(4-methylpiperazin-1-yl)phenyl)amino)pyrido[2,3-d]pyrimidin-7-yl)carbamate], the IC50 in assay [1] was 1000 to 50000 nM; in assay [2], above 10000 nM; in assay [3], above 3000 nM; in assay [4], above 3000 nM; in assay [5], above 3000 nM.

As to `C#Cc1cc(N2C(=O)OCC2C(C)C)nc2nc(Nc3ccc(N4CCN(C)CC4)cc3)ncc12` (centres unmarked) [Example 68, 3-(5-ethynyl-2-{[4-(4-methylpiperazin-1-yl)phenyl]amino}pyrido[2,3-d]pyrimidin-7-yl)-4-isopropyl-1.3-oxazolidin-2-one], the concentration for half-maximal inhibition (IC50) is below 20 nM in assay [1]; 1000 to 10000 nM in assay [2]; below 500 nM in assay [3]; 1000 to 3000 nM in assay [4]; above 3000 nM in assay [5].

For the compound `C#Cc1cc(N2C(=O)OC[C@H]2C(C)C)nc2nc(Nc3ccc(N4CCN(C)CC4)cc3)ncc12` [Example 69, (4R)-3-(5-ethynyl-2-{[4-(4-methylpiperazin-1-yl)phenyl]amino}pyrido[2,3-d]pyrimidin-7-yl)-4-isopropyl-1,3-oxazolidin-2-one], the IC50 in assay [1] was below 20 nM; in assay [2], above 10000 nM; in assay [3] it was 500 to 1000 nM; in assay [4], 500 to 1000 nM; in assay [5], above 3000 nM.

Turning to `C#Cc1cc(N2C(=O)OC[C@@H]2C(C)C)nc2nc(Nc3ccc(N4CCN(C)CC4)cc3)ncc12` [Example 70, (4S)-3-(5-ethynyl-2-{[4-(4-methylpiperazin-1-yl)phenyl]amino}pyrido[2,3-d]pyrimidin-7-yl)-4-isopropyl-1,3-oxazolidin-2-one], the half-maximal inhibitory concentration (IC50) is below 20 nM in assay [1]; below 1000 nM in assay [2]; 500 to 1000 nM in assay [3]; above 3000 nM in assay [4]; 500 to 1000 nM in assay [5].

As to `C#Cc1cc(N2CCOC2=O)nc2nc(Nc3ccc(N4CCN(C)CC4)cc3)ncc12` [Example 71, 3-(5-ethynyl-2-{[4-(4-methylpiperazin-1-yl)phenyl]amino}pyrido[2,3-d]pyrimidin-7-yl)-1,3-oxazolidin-2-one], the concentration for half-maximal inhibition (IC50) in assay [1] was below 20 nM; in assay [2], below 1000 nM; in assay [3], 1000 to 3000 nM; in assay [4], above 3000 nM; in assay [5] it was 1000 to 3000 nM.

With `C#Cc1c(C)c(NC(=O)NC2CCCC2)nc2nc(Nc3ccc(N4CCN(C)CC4)cc3)ncc12` [Example 72, 3-Cyclopentyl-1-(5-ethynyl-6-methyl-2-{[4-(4-methylpiperazin-1-yl)phenyl]amino}pyrido[2,3-d]pyrimidin-7-yl)urea], the IC50 in assay [1] is below 20 nM; in assay [2], below 1000 nM; in assay [3], 500 to 1000 nM; in assay [4], 1000 to 3000 nM; in assay [5], above 3000 nM.

As for `C#Cc1cc(N(C)C(=O)NC2CCCC2)nc2nc(Nc3ccc(N4CCN(C)CC4)cc3)ncc12` [Example 73, 3-Cyclopentyl-1-(5-ethynyl-2-{[4-(4-methylpiperazin-1-yl)phenyl]amino}pyrido[2,3-d]pyrimidin-7-yl)-1-methylurea], the 50% inhibitory concentration (IC50) was below 20 nM in assay [1]; below 1000 nM in assay [2]; below 500 nM in assay [3]; below 500 nM in assay [4]; above 3000 nM in assay [5].

Regarding `C#Cc1cc(NC(=O)N(C)C2CCCC2)nc2nc(Nc3ccc(N4CCN(C)CC4)cc3)ncc12` [Example 74, 3-Cyclopentyl-1-(5-ethynyl-2-{[4-(4-methylpiperazin-1-yl)phenyl]amino}pyrido[2,3-d]pyrimidin-7-yl)-3-methylurea], the IC50 in assay [1] was 100 to 1000 nM; in assay [2], 1000 to 10000 nM; in assay [3] it was above 3000 nM; in assay [4] it was above 3000 nM; in assay [5] it was above 3000 nM.

Regarding `C#Cc1cc(NC(=O)NC2CCCC2)nc2nc(Nc3ccc(N4CCOCC4)cc3)ncc12` [Example 75], the IC50 in assay [1] was below 20 nM; in assay [2], below 1000 nM; in assay [3] it was below 500 nM; in assay [4], below 500 nM; in assay [5] it was below 500 nM.

Consider `C#Cc1cc(NC(=O)NC2CCCC2)nc2nc(Nc3ccc(N4CCN(C5COC5)CC4)cc3)ncc12` [Example 76, 3-Cyclopentyl-1-[5-ethynyl-2-({4-[4-(oxetan-3-yl)piperazin-1-yl]phenyl}amino)pyrido[2,3-d]pyrimidin-7-yl]urea], for which the half-inhibitory concentration (IC50) in assay [1] is below 20 nM; in assay [2], below 1000 nM; in assay [3] it was below 500 nM; in assay [4], below 500 nM; in assay [5] it was below 500 nM.

With `C#Cc1cc(NC(=O)NC2CCCC2)nc2nc(Nc3ccc(N(C)C(C)=O)cc3)ncc12` [Example 77, N-[4-((7-[(Cyclopentylcarbamoyl)amino]-5-ethynyl)pyrido[2,3-d]pyrimidin-2-ylamino)phenyl]-N-methylacetamide], the concentration for half-maximal inhibition (IC50) is below 20 nM in assay [1]; below 1000 nM in assay [2]; 500 to 1000 nM in assay [3]; above 3000 nM in assay [4]; above 3000 nM in assay [5].

For the compound `C#Cc1cc(NC(=O)NC2CCCC2)nc2nc(Nc3ccc(N(C)C(=O)CN4CCC4)cc3)ncc12` [Example 78, 2-(Azetidin-1-yl)-N-[4-((7-[(cyclopentylcarbamoyl)amino]-5-ethynyl)pyrido[2,3-d]pyrimidin-2-ylamino)phenyl]-N-methylacetamide], the half-maximal inhibitory concentration (IC50) was 100 to 1000 nM in assay [1]; 1000 to 10000 nM in assay [2]; above 3000 nM in assay [3]; above 3000 nM in assay [4]; above 3000 nM in assay [5].

Consider `C#Cc1cc(NC(=O)NC2CCCC2)nc2nc(Nc3ccc(OCCN(C)C)cc3)ncc12` [Example 79, 3-Cyclopentyl-1-[2-((4-[2-(dimethylamino)ethoxyl]phenylamino)-5-ethynyl)pyrido[2,3-d]pyrimidin-7-yl]urea], for which the concentration for half-maximal inhibition (IC50) in assay [1] was below 20 nM; in assay [2], below 1000 nM; in assay [3], below 500 nM; in assay [4] it was below 500 nM; in assay [5], above 3000 nM.

In the case of `C#Cc1cc(NC(=O)NC2CCCC2)nc2nc(Nc3ccc(OC4CN(C)C4)cc3)ncc12` [Example 80], the IC50 is below 20 nM in assay [1]; below 1000 nM in assay [2]; above 3000 nM in assay [3]; below 500 nM in assay [4]; 1000 to 3000 nM in assay [5].

Consider `C#Cc1cc(NC(=O)NC2CCCC2)nc2nc(Nc3ccc(S(C)(=O)=O)cc3)ncc12` [Example 81, 3-Cyclopentyl-1-{5-ethynyl-2-[(4-methanesulfonylphenyl)amino]pyrido[2,3-d]pyrimidin-7-yl}urea], for which the IC50 in assay [1] was below 20 nM; in assay [2], below 1000 nM; in assay [3] it was 500 to 1000 nM; in assay [4], 1000 to 3000 nM; in assay [5] it was 500 to 1000 nM.

Take `C#Cc1cc(NC(=O)NC2CCCC2)nc2nc(Nc3ccc(S(=O)(=O)N(C)C)cc3)ncc12` [Example 82, 3-Cyclopentyl-1-(2-([4-(dimethylsulfamoyl)phenyl]amino-5-ethynyl)pyrido[2,3-d]pyrimidin-7-yl)urea]: the IC50 in assay [1] was below 20 nM; in assay [2], above 10000 nM; in assay [3], above 3000 nM; in assay [4], above 3000 nM; in assay [5], above 3000 nM.

As for `C#Cc1cc(NC(=O)NC2CCCC2)nc2nc(Nc3ccc(N(C)C(=O)CN(C)C)cc3)ncc12` [Example 83], the half-maximal inhibitory concentration (IC50) is below 20 nM in assay [1]; below 1000 nM in assay [2]; below 500 nM in assay [3]; below 500 nM in assay [4]; above 3000 nM in assay [5].
